In one data set the target is Gαs S275L (Homo sapiens, UniProt P63092, S275L). Nature of the data set: Adenylyl cyclase activity assay in membranes of GNAS KO HEK293 cells transfected with Gαs S275L. It is filed as biochemical. Further details: expressed in transfected cells; host or cells: GNAS KO HEK293 cells (membranes). To be noted: Gαs S275L reintroduced. The source says: To further assess the cellular specificity of GN13, we designed a GN13-resistant Gαs mutant based on structural analysis. […] We reasoned that mutating this serine residue to a bulky residue should create a drug-resistant Gαs mutant that blocks the GN13-Gαs interaction but would have little effect on adenylyl cyclase activation. […] By contrast, when the drug resistant mutant Gαs S275L was reintroduced into GNAS KO cells, the inhibitory effect of GN13 was abolished (FIG. 3I), providing further evidence that the observed pharmacological activity is due to GN13 binding to the switch II/α3 pocket in Gαs.
Sequence of Gαs S275L (P63092 whole entry S275L): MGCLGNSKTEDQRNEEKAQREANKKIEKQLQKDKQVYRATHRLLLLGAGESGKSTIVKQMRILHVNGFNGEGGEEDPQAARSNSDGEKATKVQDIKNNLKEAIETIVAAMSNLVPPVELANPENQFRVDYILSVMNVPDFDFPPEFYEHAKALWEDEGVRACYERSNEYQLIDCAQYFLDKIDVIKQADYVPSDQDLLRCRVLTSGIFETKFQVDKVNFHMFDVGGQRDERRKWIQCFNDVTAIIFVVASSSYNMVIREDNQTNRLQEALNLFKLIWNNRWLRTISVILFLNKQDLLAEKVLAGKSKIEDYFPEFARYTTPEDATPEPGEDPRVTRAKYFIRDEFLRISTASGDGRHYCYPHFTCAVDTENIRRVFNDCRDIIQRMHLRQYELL
GN13 inhibition of Gαs proteins in HEK293 cell membranes (FIG. 17F and FIG. 18F).
a. Cell membrane preparation: HEK293cells, GNAS KO HEK293 cells were plated two day before transfection at a density of 1M cells per 10 cm plate. […] The protein concentrations were measured using BCA, and were normalized to 750 μg/mL. […] The cAMP concentrations were measured by the LANCE Ultra cAMP kit. […]
A cAMP standard curve was generated in the same plate using the 50 μM cAMP standard in the kit. […] 10 μL of each diluted sample was mixed with 5 μL of 4× Eu-cAMP tracer and 5 μL of 4× ULight-anti-cAMP in a white, opaque Optiplate-384 microplate, incubated for 1 hour at room temperature, and the time-resolved fluorescence resonance energy transfer (TR-FRET) signals were read on a Spark 20M plate reader. […]

The subject of data set [1] is HeLa cells stably expressing HaloTag. Nature of the data set: Chloroalkane penetration assay (CAPA). Type of data set: in vitro ADME, human. To be noted: chloroalkane-tagged (ct) peptide; HeLa cells; ct-TAMRA chase. The source says: We first tested the cell permeability of GD20, as peptide-based chemical probes often suffer from poor cell permeability. […] In order to quantitatively evaluate the cell permeability of GD20, we used a recently developed HaloTag-based assay known as a chloroalkane penetration assay (CAPA) (Figure S6I) (Peraro et al., 2018). HeLa cells stably expressing HaloTag localized to the mitochondrial outer membrane were pulsed with chloroalkane-tagged molecules (ct-molecule), washed, chased with chloroalkane-tagged TAMRA fluorophore (ct-TAMRA), and finally analyzed by flow cytometry. A lower ct-TAMRA fluorescent signal indicates competition from a higher cytosolic concentration of ct-molecule. The carboxyl terminus of GD20 (G15) was conjugated with a chloroalkane tag to make ct-GD20 (FIG. 23A).
The cell lines used for CAPA were HeLa cell lines, generated by Chenoweth and co-workers, that stably express HaloTag exclusively in the cytosol (Peraro et al., 2018). Cells were seeded in a 96-well plate the day before the experiment at a density of 4×10^4 cells per well. The day of the experiment the media was aspirated, and 100 μL of cyclic peptide dilutions in DMEM were added to the cells. Plate was incubated for 19.5 h at 37° C. with 5% CO2. […] The cells were then trypsinized, quenched with DMEM, resuspended in PBS, and analyzed using a benchtop flow cytometer (CytoFLEX, Beckman).

Positions of bridges follow the written chain, without caps; N, C: chain ends. Non-standard residues stand in square brackets, D forms with d. Residues, ends and D or L forms follow the SMILES beside them.

`CC[C@H](C)[C@@H]1NC(=O)[C@H](C)NC(=O)[C@H](Cc2ccc(O)cc2)NC(=O)[C@H](C(C)C)NC(=O)[C@H](CO)NC(=O)[C@H](CCC(=O)O)NC(=O)[C@H](Cc2ccccc2)NC(=O)[C@@H](Cc2ccc(O)cc2)NC(=O)CSC[C@@H](C(=O)NCC(N)=O)NC(=O)[C@H](CC(C)C)NC(=O)[C@H]([C@@H](C)O)NC(=O)CNC(=O)[C@H](Cc2c[nH]c3ccccc23)NC1=O` [GN13] ({CH2CO}-[dY]FESVYAIWGTLCG-NH2; thioether N-13): the “inhibition of isoproterenol-mediated cAMP production in cell membranes” value at Gαs S275L is “abolished”.
Consider `CC[C@H](C)[C@@H]1NC(=O)[C@H](CC(C)C)NC(=O)[C@@H](Cc2ccc(O)cc2)NC(=O)CSC[C@@H](C(=O)NCC(N)=O)NC(=O)[C@@H]2CCCN2C(=O)[C@H](CC(C)C)NC(=O)[C@H](CC(N)=O)NC(=O)[C@H](CC(C)C)NC(=O)[C@H](C)NC(=O)[C@H](Cc2c[nH]c3ccccc23)NC(=O)[C@H](CCC(N)=O)NC(=O)[C@H](CCCNC(=N)N)NC(=O)[C@H](Cc2ccccc2)NC(=O)[C@H]([C@@H](C)O)NC1=O` [GD20-F10L] ({CH2CO}-[dY]LITFRQWALNLPCG-NH2; thioether N-14), for which the “cell permeability (CAPA)” value in data set [1] was “significantly improved cell penetration”.
